Where a SMILES comes first, the peptide text is derived from it. Bridges are numbered along the chain shown (N, C = ends).
Molecular target: chymotrypsin (Bos taurus, UniProt P00766)
Assay: Determination of enzyme inhibitory activity against chymotrypsin (substrate AAPFpNA, OD 405 nm)
Format: biochemical
Conditions: for IC50: chymotrypsin 30 nM, AAPFpNA 0.5 mM, pH 7.8, 37° C.; for remaining activity at 0.0001 µM: peptide 0.0001 μM; for remaining activity at 0.001 µM: peptide 0.001 μM; for remaining activity at 0.01 µM: peptide 0.01 μM; for remaining activity at 0.02 µM: peptide 0.02 μM; for remaining activity at 0.04 µM: peptide 0.04 μM; for remaining activity at 0.08 µM: peptide 0.08 μM; for remaining activity at 1 µM: peptide 1 μM; for remaining activity at 10 µM: peptide 10 μM; for remaining activity at 0.1 µM: peptide 0.1 μM; for remaining activity at 0.2 µM: peptide 0.2 μM; for remaining activity at 0.4 µM: peptide 0.4 μM; for remaining activity at 100 µM: peptide 100 μM; for remaining activity at 0.05 µM: peptide 0.05 μM; for remaining activity at 0.5 µM: peptide 0.5 μM
Description: The substrates N-succinyl-Ala-Ala-Pro-Phe-p-nitroaniline (AAPFpNA) is used in competitive binding reaction to determine the inhibitory activities against α -chymotrypsin. Experiments for a-chymotrypsin was measured in 20 mM CaCl2, 50 mM Tris-HCl buffer (pH 7.8). The concentration of the peptide was measured using optical density (OD) at 280 nm. The Michaelis constant (Km) of the enzyme hydrolysis substrate is calculated from the initial rate of substrate hydrolysis at 405 nm. The absorbance value of the substrate was measured at 405 nm after complete hydrolysis. All data were processed using nonlinear regression.
(1) Added a total 190 μL of reaction buffer (20 mM CaCl2, 50 mM Tris-HCl (pH 7.8)), different concentrations of anti-chymorypsin peptides (CHs) into the pre-cold 96 well plate, followed by preheating at 37° C. for 5 min and centrifugated at 500 rpm for 1 min and allowed to stand for 4 minutes. Then added 8 μL of 750 nM chymotrypsin and incubated at 37° C. for 10 min, and centrifugated at 500 rpm for 1 min and allowed to stand for 9 minutes. Finally, added 2 μL of 50 mM AAPFpNA, and mixed by centrifugation at 500 rpm for 1 min. The plate was incubated at 37° C. for 90 min, and the absorbance value at 405 nm was measured. Three repetitions were made, and only reaction buffer and substrate were added in the blank control as the minimum absorption value (Min OD 405 nm); Only reaction buffer, enzyme and substrate were added in the negative control as the maximum absorption value (Max OD 405 nm).
(2) In the 200 μL of reaction system, the final concentrations of chymotrypsin and AAPFpNA were 30 nM and 0.5 mM, respectively.
Plotted the residual activity of enzyme with […] to obtain the half inhibitory concentration (IC50) of anti-chymorypsin peptides (CHs). Then, substituted it into the formula […]/(1+S/Km) (S, IC50, and Km were substrate concentration, half inhibitory concentration, and Michaelis constant, respectively) to obtain the inhibition constant Ki of anti-chymorypsin peptides (CHs).

[1] = read-out: Residual activity of chymotrypsin

SMILES | Ki [nM] | IC50 [nM] | remaining activity at 0.0001 µM [1] [%] | remaining activity at 0.001 µM [1] [%] | remaining activity at 0.01 µM [1] [%] | remaining activity at 0.02 µM [1] [%] | remaining activity at 0.04 µM [1] [%] | remaining activity at 0.08 µM [1] [%] | remaining activity at 1 µM [1] [%] | remaining activity at 10 µM [1] [%] | remaining activity at 0.1 µM [1] [%] | remaining activity at 0.2 µM [1] [%] | remaining activity at 100 µM [1] [%] | further results
CC[C@H](C)[C@@H]1NC(=O)[C@H](CO)NC(=O)[C@H](Cc2ccc(O)cc2)NC(=O)[C@H]([C@@H](C)O)NC(=O)[C@@H](NC(=O)[C@@H](N)Cc2ccccc2)CSSC[C@@H](C(=O)N[C@@H](Cc2ccc(O)cc2)C(=O)NCC(=O)O)NC(=O)[C@H](CCC(N)=O)NC(=O)[C@@H]2CCCN2C(=O)[C@@H]2CCCN2C1=O [CH10] (H-FCTYSIPPQCYG-OH; disulfide 2-10; C-terminus assumed) | 30 | 60 | 101 | – | 95.1 ± 1.2 | – | – | – | 3.8 ± 0.4 | 0.1 ± 0.1 | 35.4 ± 7.2 | 24.9 ± 3.5 | -0.1 | remaining activity at 0.4 µM [1]: 18 ± 4.9%
CC[C@H](C)[C@@H]1NC(=O)[C@@H]2CCCN2C(=O)[C@@H]2CCCN2C(=O)[C@H]([C@@H](C)CC)NC(=O)[C@H](CO)NC(=O)[C@H](Cc2ccccc2)NC(=O)[C@H]([C@@H](C)O)NC(=O)[C@@H](NC(=O)[C@@H](NC(=O)CN)[C@@H](C)O)CSSC[C@@H](C(=O)N[C@@H](CC(N)=O)C(=O)N2CCC[C@H]2C(=O)N[C@@H](CC(N)=O)C(=O)O)NC1=O [CH59] (H-GTCTFSIPPICNPN-OH; disulfide 3-11; C-terminus assumed) | 80 | 180 | – | – | – | – | – | – | – | – | – | – | – | –
CC[C@H](C)[C@@H]1NC(=O)[C@@H]2CCCN2C(=O)[C@@H]2CCCN2C(=O)[C@H]([C@@H](C)CC)NC(=O)[C@H](CO)NC(=O)[C@H](Cc2ccc(O)cc2)NC(=O)[C@H]([C@@H](C)O)NC(=O)[C@@H](NC(=O)[C@@H](NC(=O)CN)[C@@H](C)O)CSSC[C@@H](C(=O)N[C@@H](CC(N)=O)C(=O)N2CCC[C@H]2C(=O)O)NC1=O [CH61] (H-GTCTYSIPPICNP-OH; disulfide 3-11; C-terminus assumed) | 50 | 120 | 100.9 ± 0.6 | 100.1 ± 0.7 | 97.3 ± 5.4 | – | – | – | 13.3 ± 1.7 | 1.7 | 44.2 ± 4.5 | – | 0.2 | remaining activity at 0.05 µM [1]: 86.1 ± 3.3%; remaining activity at 0.5 µM [1]: 24.3 ± 2.5%
CC[C@H](C)[C@@H]1NC(=O)[C@@H]2CCCN2C(=O)[C@@H]2CCCN2C(=O)[C@H]([C@@H](C)CC)NC(=O)[C@H](CO)NC(=O)[C@H](Cc2ccccc2)NC(=O)[C@H]([C@@H](C)O)NC(=O)[C@@H](NC(=O)[C@@H](NC(=O)CN)[C@@H](C)O)CSSC[C@@H](C(=O)N[C@@H](CC(N)=O)C(=O)N2CCC[C@H]2C(=O)N[C@@H](CC(N)=O)C(=O)O)NC1=O [CH25] (H-GTCTFSIPPICNPN-OH; disulfide 3-11; C-terminus assumed) | – | – | 99.7 ± 1 | 100 ± 1.9 | 96.9 ± 1.4 | – | – | – | 15.4 ± 1.2 | 1.5 ± 0.3 | – | 63.1 ± 4.1 | 0.2 ± 0.2 | remaining activity at 0.3 µM (peptide 0.3 μM, read-out: Residual activity of chymotrypsin): 44.6 ± 4.9%; remaining activity at 1000 µM (peptide 1000 μM, read-out: Residual activity of chymotrypsin): 0.2 ± 0.1%
CC[C@H](C)[C@@H]1NC(=O)[C@@H]2CCCN2C(=O)[C@@H]2CCCN2C(=O)[C@H]([C@@H](C)CC)NC(=O)[C@H](CO)NC(=O)[C@H](Cc2ccccc2)NC(=O)[C@H]([C@@H](C)O)NC(=O)[C@@H](NC(=O)[C@H](CCCNC(=N)N)NC(=O)CN)CSSC[C@@H](C(=O)N[C@@H](Cc2ccccc2)C(=O)N2CCC[C@H]2C(=O)N[C@@H](CC(=O)O)C(=O)O)NC1=O [CH54] (H-GRCTFSIPPICFPD-OH; disulfide 3-11; C-terminus assumed) | 10 | 30 | 100.6 ± 0.9 | 101.7 ± 0.6 | 100 ± 2.9 | 68.8 ± 4 | 34.2 ± 3.9 | 15.2 ± 1.9 | 0.4 ± 0.2 | -0.1 | 13.8 ± 3.3 | – | – | –

More lines, main results first:

Ki [nM] | IC50 [nM] | remaining activity at 0.0001 µM [1] [%] | remaining activity at 0.001 µM [1] [%] | remaining activity at 0.01 µM [1] [%] | remaining activity at 0.02 µM [1] [%] | remaining activity at 0.04 µM [1] [%] | remaining activity at 0.08 µM [1] [%] | remaining activity at 1 µM [1] [%] | remaining activity at 10 µM [1] [%] | remaining activity at 0.1 µM [1] [%] | remaining activity at 0.2 µM [1] [%] | remaining activity at 100 µM [1] [%] | SMILES | further results
120 | 270 | – | – | – | – | – | – | – | – | – | – | – | CC[C@H](C)[C@@H]1NC(=O)[C@@H]2CCCN2C(=O)[C@@H]2CCCN2C(=O)[C@H]([C@@H](C)CC)NC(=O)[C@H](CO)NC(=O)[C@H](Cc2ccc(O)cc2)NC(=O)[C@H]([C@@H](C)O)NC(=O)[C@@H](NC(=O)[C@@H](N)CCCNC(=N)N)CSSC[C@@H](C(=O)N[C@@H](Cc2ccccc2)C(=O)O)NC1=O [CH58] (H-RCTYSIPPICF-OH; disulfide 2-10; C-terminus assumed) | –
20 | 40 | 99 ± 1.3 | 100.2 ± 0.3 | 98 ± 5.1 | 66 ± 7.5 | 48.4 ± 5.8 | 19.1 ± 4.6 | 0.9 ± 0.3 | -0.2 ± 0.2 | – | – | – | CC[C@H](C)[C@@H]1NC(=O)[C@@H]2CCCN2C(=O)[C@@H]2CCCN2C(=O)[C@H]([C@@H](C)CC)NC(=O)[C@H](CO)NC(=O)[C@H](Cc2ccc(O)cc2)NC(=O)[C@H]([C@@H](C)O)NC(=O)[C@@H](NC(=O)[C@H](CCCNC(=N)N)NC(=O)CN)CSSC[C@@H](C(=O)N[C@@H](Cc2ccccc2)C(=O)O)NC1=O [CH57] (H-GRCTYSIPPICF-OH; disulfide 3-11; C-terminus assumed) | remaining activity at 0.06 µM (peptide 0.06 μM, read-out: Residual activity of chymotrypsin): 38.1 ± 7.9%
8.6 | 20 | 102.1 ± 1 | 101.6 ± 0.9 | – | 45.8 ± 10 | 21.8 ± 4.2 | 11.6 ± 1.2 | 0.9 ± 0.1 | 0.1 | 8 ± 2.4 | – | – | CC[C@H](C)[C@@H]1NC(=O)[C@@H]2CCCN2C(=O)[C@@H]2CCCN2C(=O)[C@H]([C@@H](C)CC)NC(=O)[C@H](CO)NC(=O)[C@H](Cc2ccc(O)cc2)NC(=O)[C@H]([C@@H](C)O)NC(=O)[C@@H](NC(=O)[C@H](CCCNC(=N)N)NC(=O)CN)CSSC[C@@H](C(=O)N[C@@H](Cc2ccccc2)C(=O)N2CCC[C@H]2C(=O)N[C@@H](CC(=O)O)C(=O)O)NC1=O [CH55] (H-GRCTYSIPPICFPD-OH; disulfide 3-11; C-terminus assumed) | remaining activity at 0.015 µM (peptide 0.015 μM, read-out: Residual activity of chymotrypsin): 68.1 ± 3.7%
60 | 150 | 100.9 ± 0.8 | – | 102 ± 2.2 | – | – | – | 14.2 ± 5.9 | 0.8 ± 0.1 | 56.4 ± 2 | – | 0.1 | CC[C@H](C)[C@@H]1NC(=O)[C@@H]2CCCN2C(=O)[C@@H]2CCCN2C(=O)[C@H]([C@@H](C)CC)NC(=O)[C@H](CO)NC(=O)[C@H](Cc2ccc(O)cc2)NC(=O)[C@H]([C@@H](C)O)NC(=O)[C@@H](NC(=O)[C@@H](NC(=O)CN)[C@@H](C)O)CSSC[C@@H](C(=O)N[C@@H](CC(N)=O)C(=O)O)NC1=O [CH62] (H-GTCTYSIPPICN-OH; disulfide 3-11; C-terminus assumed) | remaining activity at 0.05 µM [1]: 83.4 ± 8.3%; remaining activity at 0.25 µM (peptide 0.25 μM, read-out: Residual activity of chymotrypsin): 40.9 ± 6.8%; remaining activity at 0.5 µM [1]: 25.1 ± 1.5%
160 | 370 | – | 102.3 ± 0.8 | 104.1 ± 0.5 | – | – | – | 17.8 ± 0.9 | 1.2 ± 0.1 | 104.8 ± 0.6 | 78.5 ± 2.5 | 0.1 | CC[C@H](C)[C@@H]1NC(=O)[C@H](CO)NC(=O)[C@H](Cc2ccc(O)cc2)NC(=O)[C@H]([C@@H](C)O)NC(=O)[C@@H](NC(=O)[C@@H](N)Cc2ccccc2)CSSC[C@@H](C(=O)N[C@@H](Cc2ccc(O)cc2)C(=O)N[C@@H](C)C(=O)O)NC(=O)[C@H](CCC(N)=O)NC(=O)[C@@H]2CCCN2C(=O)[C@@H]2CCCN2C1=O [CH34] (H-FCTYSIPPQCYA-OH; disulfide 2-10; C-terminus assumed) | remaining activity at 0.4 µM [1]: 45.5 ± 1.5%; remaining activity at 0.75 µM (peptide 0.75 μM, read-out: Residual activity of chymotrypsin): 24.5 ± 0.9%

Reference: US20260242438A1 (INSTITUTE OF MATERIA MEDICA, CHINESE ACADEMY OF MEDICAL …, priority 2022, published 2026)
